These results are taken from PMC5622107, “Small molecule inhibition of cGAS reduces interferon expression in primary macrophages from autoimmune mice” (Nature Communications, 2017).

Broadly, the Kd is the equilibrium constant for the complex coming apart. The IC50 is the concentration that inhibits the measured activity by half.

For series [1], the system named is 45-bp dsDNA. Kind of series: DNA intercalation: acridine orange displacement from dsDNA by fluorescence polarization. The series is classed as binding. In short, it runs like this: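 Acridine orange displacement from 45-bp dsDNA in HEN buffer (10 mM HEPES pH 7.5, 1 mM EDTA, 100 mM NaCl), compounds at 30 µM final, 30 min incubation. Fluorescence polarization read in mP, buffer-corrected, G-factor 1.0; mitoxantrone 50 µM and DMSO as controls.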
In general terms: Polarisation of emitted light reports the rotation of a fluorescent probe.

In series [2] the target is T1, cGAS/dsDNA complex (Mus musculus, UniProt Q8C6L5).
T1 construct: full-length (for high-throughput screening) and residues 147–507 (for structural study) of cGAS; His6-SUMO (N, cleaved yes); made in house; host or cells: E. coli BL21(DE3) RIL
Put plainly: Isothermal titration calorimetry, compound titrated into cGAS/dsDNA complex. The format is binding. On the procedure: ITC measurements were performed at 25 °C using a MicroCal auto-iTC200 calorimeter (MicroCal, LLC). Purified truncated mouse cGAS was dialyzed against 40 mM HEPES buffer (pH 7.5) and 300 mM NaCl for 24 h at 4 °C. Dialysis led to some precipitation, which were removed through centrifugation followed by collection of the supernatant. The concentration of the protein in supernatant was measured using Pierce® BCA protein assay. The protein was flash frozen in liquid N2 and stored at −80 °C. For the ITC assay, the dialyzed protein was prediluted to 20 µM in the dialysis buffer and diluted to a final concentration of 10 µM in a final buffer containing 40 mM HEPES, 1% DMSO, 150 mM NaCl, 0.01% Tween-20 and + /− dsDNA 10 µM and + /− ATP or GTP 1 mM. Then, 2 μl RU.365 100 µM, dissolved in the buffer aforementioned, were injected into 0.2 ml of protein in the chamber every 150 s. Data for raw ITC and thermodynamic curves, each from one experiment, were downloaded after analysis using Affinimeter software and plotted using GraphPad Prism (7.01). The software calculates error bars as an indication of the contribution of the raw data noise that is determined from the integral of the standard deviation of the baseline during the injection.
On the technique in general: In ITC the heat of successive injections is recorded.

Series [3] relates to cGAS activity in dsDNA-stimulated RAW macrophages. Put plainly: Cellular luciferase assay, interferon-responsive reporter in dsDNA-stimulated RAW macrophages. The series is classed as cell-based. To be noted: Mus musculus, Macrophage, dsDNA-activated RAW cells. On the procedure:
The sequence and annealing conditions of the dsDNA used is described above. Typically, 0.4 µg or 0.6 µg of dsDNA was used to stimulate RAW-Lucia ISG-KO-TREX1/ISG-KO-cGAS or RAW-Lucia ISG cells, respectively, which equated to 90% of maximal luciferase activity observed. dsDNA stimulation of RAW macrophages and subsequent luciferase measurements were performed with or without the addition of small molecules at indicated concentrations in each figure, or with DMSO as vehicle control. For the dose curve experiments, serial dilutions of inhibitors were applied to 6.7 × 10^5 cells, plated in 24-well dishes, and co-stimulated with 0.4 µg of dsDNA. In subsequent experiments using inhibitors in RAW cells, the small molecules were used at concentrations representing the derived EC75 values, while co-stimulated with one of the following: 0.4 µg dsDNA, 50 nM 5′ppp-HP20 hairpin RNA (a kind gift from Dr Anna Pyle, Yale University; sequence located in Supplementary Table 5), 10 µM cGAMP, or 100 U ml^−1 murine recombinant Ifnb (R&D Systems). dsDNA was transfected using Lipofectamine LTX. 5′ppp-HP20 RNA was transfected using Lipofectamine 2000. Cells were harvested 24 h post-transfection, washed with PBS, and lysed in 1× Luciferase Cell Lysis Buffer (Pierce).
The minimum numbers of biological and technical replicates for the luciferase assays were two and three, respectively. Analysis of luminescence values were evaluated for outliers (one standard deviation above and below the mean) for each biological replicate, and the resulting means were used to generate graphs in GraphPad Prism (v. 7.0c); where applicable, an unpaired t-test with Welch’s correction was used to compare the results of each individual compound to dsDNA or other stimulant. The experimental variances observed within control samples (untreated or vehicle) and treated samples were similar.

The subject of series [4] is RAW 264.7. Put plainly: Cytotoxicity, CellTiter-Glo ATP quantitation at 72 h. The format is cell-based. To be noted: for LD50: RAW macrophages, 72 h, percent viability. The protocol: Small-molecule compounds were serially diluted to concentrations spanning the range tested in the response curves were added to 6.7 × 10^5 RAW-Blue macrophages plated 16 h prior in 96-well dishes, then harvested 72 h after compound addition. ATP was measured using CellTiter Glo Viability Assay (Promega) using 50 µM Tamoxifen (Sigma) as a positive control for cytotoxicity. Viability values were generated using vehicle (DMSO) or the first dose (RU.521) as 100% and Tamoxifen as 0%. Outliers were removed as described previously.
(Cellular ATP, detected with luciferase, serves as a proxy for viable cell number.)

Setting [5] is: cGAS in presence of dsDNA, no ATP/GTP.

Several values for one entry are separate records, joined by “and”; a condition that tells them apart may be missing. Equal entries are not always repeated.

T1 sequence (Q8C6L5 147-507, one chain of several): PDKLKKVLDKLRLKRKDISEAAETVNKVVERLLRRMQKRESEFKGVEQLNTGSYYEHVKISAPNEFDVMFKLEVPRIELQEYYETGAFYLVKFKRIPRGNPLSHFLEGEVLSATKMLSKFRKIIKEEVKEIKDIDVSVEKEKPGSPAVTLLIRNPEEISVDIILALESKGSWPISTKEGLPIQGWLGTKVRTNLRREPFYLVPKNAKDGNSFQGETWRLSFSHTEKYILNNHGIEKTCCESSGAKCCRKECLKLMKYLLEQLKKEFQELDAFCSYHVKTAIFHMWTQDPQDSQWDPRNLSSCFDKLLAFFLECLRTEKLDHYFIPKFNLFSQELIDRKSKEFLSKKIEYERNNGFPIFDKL

Take `Cc1nn(-c2nc3ccccc3[nH]2)c(O)c1C1OC(=O)c2ccccc21` (centres unmarked) [RU166365]: the “% intercalation at 30 µM” value in series [1] (Supplementary Table 2, acridine orange displacement compared to mitoxantrone) is given as -6.7%. Also, in series [1] (Supplementary Table 2, compound 30 µM), the Polarization amounted to 264 mP. Further, the figures for the “T*ΔS” value in series [2] (cGAS in presence of dsDNA), in series [2] (cGAS/dsDNA + ATP 1 mM) and in series [2] (cGAS/dsDNA + GTP 1 mM) were -4.504 kcal/mol, -2.493 kcal/mol and -3.668 kcal/mol, respectively. For the same molecule, the figures for the rM in series [2] (cGAS in presence of dsDNA), in series [2] (cGAS/dsDNA + ATP 1 mM) and in series [2] (cGAS/dsDNA + GTP 1 mM) were 0.9075, 0.9605 and 0.9257, respectively. The ΔG in series [2] (cGAS in presence of dsDNA) was -9.813 kcal/mol; in series [2] (cGAS/dsDNA + ATP 1 mM) it was -9.524 kcal/mol; in series [2] (cGAS/dsDNA + GTP 1 mM), -8.902 kcal/mol. Besides, the ΔH in series [2] (cGAS in presence of dsDNA) was -14.32 kcal/mol; in series [2] (cGAS/dsDNA + ATP 1 mM), -12.02 kcal/mol; in series [2] (cGAS/dsDNA + GTP 1 mM), -12.57 kcal/mol. Also, the Kd in series [2] (setting [5]) was 64.1 nM and 64 nM; in series [2] (cGAS/dsDNA + 1 mM ATP), 104 nM; in series [2] (cGAS/dsDNA + 1 mM GTP), 298 nM. Moreover, the midpoint of inhibition in series [3], the IC50, lay at 4980 nM. For the same molecule, the “LD50 over cellular IC50” value in series [4] is 9 fold. The LD50 in series [4] (listed as RU.365) was 45 µM.

As for `Cc1nn(-c2nc3ccc(Cl)c(Cl)c3[nH]2)c(O)c1C1OC(=O)c2ccccc21` (centres unmarked) [RU320521, 3-[1-(6,7-dichloro-1H-benzimidazol-2-yl)-5-hydroxy-3-methyl-pyrazol-4-yl]-3H-isobenzofuran-1-one], the “DNA intercalation or interaction” value in series [1] (acridine orange competition screen) is given as “did not show any indication that it could act in a manner that could intercalate or interact with DNA”. Besides, in series [2] (cGAS in presence of dsDNA), the “T*ΔS” value was -6.134 kcal/mol, the rM was determined as 0.8071, the ΔG is -10.15 kcal/mol and the ΔH was -16.29 kcal/mol. Further, the equilibrium dissociation constant (Kd) in series [2] (setting [5]) amounted to 36.2 nM. Besides, half-maximal inhibition in series [3] (IC50) was put at 700 nM. For the same molecule, in series [4], the “LD50 over cellular IC50” value was 88 fold. This molecule also displayed an LD50 in series [4] (listed as RU.521) of 62 µM.
